From patent publication US20260115261A1, “COLLAGEN PEPTIDE-BASED MEDICAMENT COMPOSITIONS AND USES THEREOF” (SUSTAIN HOLDINGS, LLC, priority 2023, published 2026)

How the values were obtained:
[1] = tested on: dorsal root ganglion (DRG) neurons; assay: DRG explant neurite outgrowth on MMP-1-digested collagen treated with CMP; format: cell-based, rat
Description: Plates were then rinsed with culture medium, and DRG neuronal cells were plated uniformly on plates having one of three surface coating conditions: (1) intact collagen; (2) MMP1-digested collagen; and (3) MMP1-digested collagen+CMP. Plates were then incubated at 37° C. for 24 hours or 48 hours, and then examined for morphology and neurite outgrowth by inverted brightfield microscopy.
To measure neurite outgrowth accurately, explants were visualized live using multifocal high-magnification phase contrast microscopy to optimize identification and measurement of the longest neurite (FIG. 2A, white arrow) and the size of the DRG explant growth field.

[2] = tested on: cerebrovasculature of ApoE−/− STZ mice; assay: Diabetic atherosclerosis mouse model (ApoE−/− + STZ + high fat diet), cerebrovascular immunohistochemistry; format: in vivo
Description: Animals. All animal studies were conducted in accordance with the NIH guide for the care and use of laboratory animals and approved by the Vanderbilt University Institutional Animal Care and Use Committee. For the studies described, 12-week-old ApoE^−/− (#002052) or C57/B6J wildtype (WT) (#000664) mice were obtained from Jackson Laboratories. Mice were housed in a facility managed by Vanderbilt University Division of Animal Care with ad libitum access to water and standard diet followed by ad libitum access to 45% high fat diet (Research Diet Inc.; Catalog #D12451) starting at the correct study time point. Mice were subjected to 12-hr. light/dark cycle.
Animal Model of Diabetic Atherosclerosis. A diabetic atherosclerosis mouse model was implemented by combining ApoE^−/− mice with a streptozocin STZ-induced diabetic phenotype. Prior to STZ injection and diet change, baseline fasting blood glucose measurements and weights were obtained. To induce hyperglycemia ApoE^−/− mice were injected with STZ (50 mg/Kg in 10 mM sodium citrate, pH4.5; Millipore Sigma Catalog #S0130) intraperitoneally for five consecutive days. For the duration of STZ injections, mice received drinking water supplemented with 10% sucrose. One week after the final STZ injection, blood glucose levels were measured to confirm hyperglycemia. Mice were fasted for 6 hours prior to glucose measurement and then anesthetized with 2.5% isoflurane. Tail snips were taken, and one drop of blood was placed on test strips to obtain readings. Tails were then stemmed of bleeding using a silver nitrate applicator (Avoca reference number #7482) before returning mice to their cages. Any mice not registering as hyperglycemic were removed from the study. Remaining mice were then switched to a 45% high fat diet (HFD) to accelerate atherosclerotic plaque formation. After 1 week on HFD, mice were randomly assigned to receive intravenous CMP (n=5) or PBS (1×PBS, n=4) once weekly for 12 weeks. Upon conclusion of the study, mice were anesthetized via intraperitoneal pentobarbital injection followed by transcardial perfusion of 1×PBS and 4% paraformaldehyde (PFA). One day prior to sacrifice, mice were injected via tail vein injection with Sulfo-NHS-Biotin in sterile 1×PBS (Thermo-Fisher; Catalog #21335).
Intravenous Administration of CMPs. The CMP used in the present Example was a 21-aa single-strand peptide consisting of a 7-repeat sequence of a tripeptide of 4-fluoroproline (Flp), hydroxyproline (Hyp), and glycine (Gly), and abbreviated as (cis-Flp-Hyp-Gly)7 (SEQ ID NO:6). This CMP was manufactured using standard solid-phase peptide synthesis chemistry in limited quantity by Bachem, AG (Germany). CMP was dissolved in sterile 1×PBS at a concentration of […] and sterilized using a 0.22 µm filter (Millipore Sigma, Burlington, MA, USA). Mice were weighed and restrained in an apparatus designed for tail vein injection. Tails were heated to dilate the veins prior to weekly injection, and […] of CMP in sterile 1×PBS (vehicle) was injected to accommodate a final concentration in each animal of 0.1 mg/Kg. An additional batch of this CMP was produced with attachment of the TideFluor™ 2 moiety (AAT Bioquest, Sunnyvale, CA, United States) to the peptide as a fluorescent reporter. This labeled CMP was injected intravenously at 100 μM concentration (100 μL) to identify binding in WT vs. ApoE^−/−+STZ mice. CMP was injected 48 hours prior to sacrifice and again immediately before transcardial perfusion of 4% PFA. One day prior to euthanasia, tail veins were injected with Sulfo-NHS biotin to track vascular leakage. Sulfo-NHS Biotin (Thermo-Fisher; Catalog #21335) was dissolved in sterile 1×PBS (20 mg/mL) and sterilized through a […] filter. Mice were then restrained in tail vein apparatus and injected intravenously with 100 μL Sulfo-NHS biotin. […]

optic nerve = assay: Optic nerve crush, axon repair after intravitreal injection; format: in vivo, mice; conditions: for greater abundance of CTB-containing axon segments vs vehicle: measurements above the median, p≤0.02
Description: To further examine the effects of CMPs on nerve regeneration, optic nerve crush experiments were performed. This approach is a useful model of traumatic optic neuropathy and for assessing potential neuroreparative and neuroregenerative strategies (Cameron, E G et al., Bio-protocol 10(6) (Mar. 20, 2020), doi: 10.21769/BioProtoc.3559). Axon degeneration in this injury model also involves degradation of matrix collagen associated with robust tissue remodeling (Bernardo-Colon, A et al., Cell Death Dis. 9:1097 (2018); Sharma, T P et al., Mol. Neurodegener. 9:14 (2014)). Mice were subjected to […] nerve crush, and then three days later received an intravitreal injection of vehicle (DMSO) or of fluorescently tagged CMP 13A (SEQ ID NO:6). Optic nerves were longitudinally sectioned in the site of the injury two weeks following nerve crush, and sections were examined for axon length (via cholera toxin B labeling) and CMP localization (via fluorescence microscopy). Sections were also labeled with glial fibrillary acidic protein (GFAP) to localize astrocyte glia in the sections. […] Repaired axons were largely coincident with localized patches of CMP (FIG. 6C, arrows). Scale=200 μm (FIG. 6A) or 100 μm (FIGS. 6B,C).
Next, we quantitated the number of CTB+ green axon segments at discrete distances distal from the crush site (towards the brain). […] Even so, in both cohorts, there were a number of samples with few, if any, axons distal from the crush site, leading to substantial variability (FIG. 7B, inset). To better estimate the magnitude of the effect due to CMP 13A compared to vehicle, we pooled the measurements above the median at each location into three bins: 50-100 μm, 200-300 μm, and 400 μm and further from the injury site. […] Intact axon segments in these nerves were also longer than those in nerves from vehicle-treated eyes. The mean length of intact axon segments in nerves from CMP 13A-treated eyes was 51% greater than that in the vehicle cohort: 122.6±5.5 vs. 81.1±8.3 μm (p<0.001; FIG. 7D). Similarly, the mean for the longest 25 segments in the CMP 13A nerves was nearly 80% greater than that for vehicle nerves: 228.1±12.9 vs. 127.8±10.5 μm (p<0.001; FIG. 7E).

## Pro-Flp-Gly-Pro-Flp-Gly-Pro-Flp-Gly-Pro-Flp-Gly-Pro-Flp-Gly-Pro-Flp-Gly-Pro-Flp-Gly [CMP 09C]
[1]; 48 hours, MMP1-digested collagen + CMP 100 μM, normalized to intact collagen, p<0.036
  longest neurite outgrowth, greater than intact collagen: 21%
[1]; explants on damaged (MMP-1-digested) collagen treated with CMP 100 μM, 24 and 48 hours
  neurite outgrowth of DRG explants (phase contrast micrographs): improved outgrowth

## Flp-Hyp-Gly-Flp-Hyp-Gly-Flp-Hyp-Gly-Flp-Hyp-Gly-Flp-Hyp-Gly-Flp-Hyp-Gly-Flp-Hyp-Gly [CMP 13A]
[2]; 3 months post-treatment, Sulfo-NHS biotin intravenous one day before euthanasia
  vascular leakage of biotin: not observed
[2]; CA1 (p<0.0001) and DG (p=0.0004)
  distance from individual astrocytes to the nearest blood vessel: closer to blood vessels than in PBS-treated mice
[2]; CA1 (p=0.07) and DG (p=0.06)
  GFAP density vs PBS: not significantly different
[2]; CA1, DG and cortex
  biotin intensity (secondary measure of vessel density) vs PBS: increased biotin labeling
[2]; CA1, cortex and DG (p=0.02, p<0.0001, p=0.01), 0.1 mg/Kg intravenous once weekly for 12 weeks
  CD31 intensity vs PBS: increased
[2]; CA1, p=0.01
  increase of collagen IV intensity relative to PBS-treated controls: 170%
[2]; CA1, p=0.02
  number of astrocyte soma vs PBS: decreased
[2]; CA1 and cortex (p=0.001 and p<0.0001), (cis-Flp-Hyp-Gly)7 0.1 mg/Kg intravenous once weekly for 12 weeks
  area of CD31-positive vessels vs PBS: significant increase
[2]; DG only (p=0.04)
  CD31 intensity as a ratio of biotin intensity vs PBS: significantly increased
[2]; DG, 0.1 mg/Kg intravenous once weekly for 12 weeks
  vessel (CD31) area vs control: no significant difference
[2]; DG, p=0.04
  increase of collagen IV intensity relative to PBS-treated controls: 52%
[2]; DG, p=0.31
  number of astrocyte soma vs PBS: not significantly different
[2]; all brain regions, vs shorter, more fragmented vessels in PBS-treated mice
  vascular structure by biotin labeling: longer, more complex vessels with increased branching
[2]; cortex, p=0.01
  increase of collagen IV intensity relative to PBS-treated controls: 175%
Optic nerve; 50-100 μm from injury site
  greater abundance of CTB-containing axon segments vs vehicle: 29%
Optic nerve; 200-300 μm from injury site
  greater abundance of CTB-containing axon segments vs vehicle: 39%
Optic nerve; 400 μm and further from injury site
  greater abundance of CTB-containing axon segments vs vehicle: 96%
Optic nerve; fluorescently tagged CMP 13A intravitreal 3 days after crush, two weeks after crush, vs vehicle (DMSO)
  number of CTB+ axon segments at discrete distances distal from the crush site: more axon segments than nerves from vehicle eyes at each location examined
Optic nerve; two weeks after crush
  distance of CTB+ segments distal from the injury, some samples: ≤ 1 mm
  mean for the longest 25 segments: 228.1±12.9 μm
  mean length of intact axon segments: 122.6±5.5 μm
Optic nerve; two weeks after crush, p<0.001
  mean for the longest 25 segments, greater than vehicle nerves: ~80%
  mean length of intact axon segments, greater than vehicle cohort: 51%
